In assay [1] the test system is ethanol self-administration in rats. Conditions: icv administration; cited from earlier work.
In assay [2] the target is T1, recombinant human NPY Y2 receptors (Homo sapiens, UniProt P49146).
T1 construct: expressed in transfected cells; host or cells: CHO-C4 cells (membrane preparation)
T1 sequence (P49146 1-381): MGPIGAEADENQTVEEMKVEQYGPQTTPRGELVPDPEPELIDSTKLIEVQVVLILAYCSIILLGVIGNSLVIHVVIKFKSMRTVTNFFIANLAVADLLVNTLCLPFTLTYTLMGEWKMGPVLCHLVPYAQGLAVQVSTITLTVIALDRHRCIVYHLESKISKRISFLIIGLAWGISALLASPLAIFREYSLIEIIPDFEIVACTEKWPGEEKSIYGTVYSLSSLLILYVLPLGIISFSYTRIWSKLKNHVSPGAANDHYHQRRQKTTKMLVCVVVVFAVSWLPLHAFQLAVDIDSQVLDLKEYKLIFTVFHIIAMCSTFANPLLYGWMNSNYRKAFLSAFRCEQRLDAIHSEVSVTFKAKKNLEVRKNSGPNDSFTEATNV
Description: Scintillation proximity [35S]GTPγS binding assay (inhibition of 0.5 nM NPY-stimulated [35S]GTPγS binding). In kind it is biochemical. Conditions: 10 μM compound, CHO-C4 membranes, read-out: [%] inhibiton at 10 μM. The protocol:
Preparation of Membranes: CHO—C4 cells expressing recombinant human NPY Y2 receptors were used to prepare membranes for the GTPγS assay. Cells were grown to 80-95% confluency on 15-cm (225 cm^2) tissue culture plates. After aspiration of the culture medium, cells were washed twice with 18 ml ice-cold phosphate-buffered saline (PBS), scraped off and suspended in 3 ml ice-cold PBS in pre-cooled centrifuge tubes. The dishes were rinsed with 2 ml ice-cold PBS per dish and the washings were combined with the PBS cell suspension from above. Cells pooled from 5-7 dishes were centrifuged for 5 min at 10,000 rpm (12,000 g) in a Sorvall RC5B centrifuge using an SS34 rotor at 4° C. The cell pellet was resuspended in 5 ml ice-cold buffer (20 mM HEPES, 10 mM EDTA; pH 7.4) by vortexing (2-5 sec), homogenized using a Polytron (step 4 for 20-30 sec), and ice-cold buffer added to 25 ml. The suspension was centrifuged again for 20 min at 18,000 rpm (39,000 g) at 4° C. and the pellet resuspended in 5 ml ice-cold buffer (20 mM HEPES, 0.1 mM EDTA; pH 7.4) by vortexing (2-5 sec), homogenized with a Polytron (step 4 for 10 sec), and ice-cold buffer added to 25 ml. The suspension was centrifuged a third time for 20 min at 18,000 rpm (39,000 g) at 4° C. The pellet was resuspend in 1 ml ice-cold buffer (20 mM Hepes, 0.1 mM EDTA; pH 7.4) by vortexing (5-8 sec). Two to five resuspended pellets were combined and homogenized using a Polytron (step 4 for 15-25 sec). A small aliquot (20-50 μl) was removed for protein determination by the Coomassie Plus Protein Assay Reagent (Pierce) using BSA as standard. The membrane suspension was aliquoted in pre-cooled (on dry ice) Eppendorf tubes (0.25-1 ml/tube affording approximately 0.5-2 mg of membrane protein/tube). The pellets were frozen and stored at −80° C.
Scintillation proximity [^35S]GTPγS binding assay: Frozen membranes from CHO—C4 cells expressing recombinant human NPY Y2 receptors (2 mg for four 96-well plates) were thawed on ice. Thawed membranes were pipetted into 10 ml of assay buffer (20 mM. HEPES, 10 mM MgCl2, 100 mM NaCl, pH 7.4) and homogenized briefly using a Polytron. The final assay mixture was prepared in 96-well microtiter plates (Isoplate Wallac, Perkin Elmer). The composition of the assay mixtures in a final volume of 250 μl per well was as follows: 20 mM HEPES, 10 mM MgCl2, 100 mM NaCl, pH 7.4, 30 μM GDP, 1 mg/ml BSA (added fresh), 5 μg membrane protein, 1.5 mg Wheatgerm agglutinin SPA beads (Amersham), 0.45 nM [^35S]GTPγS (Amersham, SJ1308, 1000 Ci/mmol, stabilized solution), and the test compounds (agonists and/or antagonists) at the appropriate concentrations. The samples were incubated at room temperature for 90 min by shaking, after which the SPA beads were sedimented by centrifugation in an Eppendorf 5804 centrifuge at 2700 rpm for 10 min at room temperature. After 60 min the plates were counted in a TopCount (Canberra). Basal [^35S]GTPγS binding was measured in the absence of agonist (NPY). Non-specific binding was measured in the presence of excess (10 μM) unlabelled GTPγS (Sigma). Nonspecific binding never exceeded 10% of basal binding and was thus not subtracted from the experimental data. Antagonists were tested for the inhibition of 0.5 nM NPY-stimulated [^35S]GTPγS binding. Antagonist inhibition curves were analyzed by non-linear regression using GraphPad Prism software (Version 4.0, GraphPad Software Inc., CA, USA).
Antagonistic activity of compounds of the present invention was examined by the Scintillation proximity [35S]GTPγS binding assay as described above (inhibition of 0.5 nM NPY-stimulated [^35S]GTPγS binding). The table below represents percentages of inhibition at a concentration of 10 μM.
(In general: SPA uses beads or plates that emit light when radiolabelled molecules are held near them.)

Assay [3] relates to normal gastric emptying in mice. Description: Normal gastric emptying in mice by Near Infrared FluoRescent (NIRF) imaging. Conditions: imaging 15 minutes after gavage, vehicle control 70%. In kind it is in vivo, C57/BI6 mice. Here is the method:
The effect of Example 33, (−)-1-(3,5-Dimethyl-isoxazol-4-yl)-3-{4-[2-(S)-2,5-dioxo-4-phenyl-4-propyl-imidazolidin-1-yl)-acetyl]-3-fluoro-phenyl}-urea, on normal gastric emptying in mice is assessed by means of Near Infrared FluoRescent (NIRF) imaging. The NIRF method is described in detail in the publication by Gremlich et al (J. Mol. Imaging, 2004, 3(4), 303-311). In short, C57/BI6 mice are gavaged 0.2 ml test meal (Isosource Standard meal, Novartis Medical Nutrition, Germany) that contains 7.5 g methylcellulose and 5 g Tentagel fluorescent beads (TentaGel MB-NH2, particle size […], capacity 0.2-0.3 mmol/g; Rapp Polymere, Tubingen, Germany) per 100 ml and immediately returned to their cages. 15 minutes after the gavage mice are anaesthetized using isoflurane and prepared for NIRF imaging. Images from the gastric and intestinal areas are taken and the percentage of food emptied from the stomach is calculated as the ratio of fluorescence measured in the intestines and the stomach. Example 33 was dissolved in 1-methyl-2-pyrrolidon, polyethyleenglycol-300 and 5% dextrose solution (w/v) in the following proportion (v/v): 10%, 30% and 60% respectively and injected intraperitoneally 30 minutes before the administration of the test meal. In the vehicle control group (n=6), 70% of the meal was emptied from the stomach.

Take `N=C(N)NCCC[C@H](NC(=O)CC1(CC(=O)N2CCN(C3c4ccccc4NC(=O)c4ccccc43)CC2)CCCC1)C(=O)NCCn1c(=O)n(-c2ccccc2)n(-c2ccccc2)c1=O` (stereo partly shown) [BIIE0246]: the “effect on ethanol self-administration” value in assay [1] was “dose dependently reduced ethanol self-administration”. For the molecule `CCC[C@@]1(c2ccccc2)NC(=O)N(CC(=O)c2ccc(NC(=O)Nc3c(C)noc3C)cc2F)C1=O` [Example 33, (−)-1-(3,5-Dimethyl-isoxazol-4-yl)-3-{4-[2-((S)-2,5-dioxo-4-phenyl-4-propyl-imidazolidin-1-yl)-acetyl]-3-fluoro-phenyl}-urea], in assay [2], the inhibition at 10 µM turned out to be 95%. In addition, the “percentage of the meal emptied from the stomach” value in assay [3] (0.3 mg/kg intraperitoneally 30 minutes before test meal) is reported as 80%; in assay [3] (1 mg/kg intraperitoneally 30 minutes before test meal) it was 81%.

Consider `CCC(CC)C(=O)Nc1ccc(C(=O)CN2C(=O)NC(c3ccccc3)(c3ccccc3)C2=O)c(F)c1` [Example 34, N-{4-[2-(2,5-Dioxo-4,4-diphenyl-imidazolidin-1-yl)-acetyl]-3-fluoro-phenyl}-2-ethyl-butyramide], for which, in assay [2], the inhibition at 10 µM amounted to 90%. The same measure, in the same setting: to `Cc1cnn(C)c1CC(=O)Nc1ccc(C(=O)CN2C(=O)NC(c3ccccc3)(c3ccccc3)C2=O)cc1` [Example 49, 2-(2,4-Dimethyl-2H-pyrazol-3-yl)-N-{4-[2-(2,5-dioxo-4,4-diphenyl-imidazolidin-1-yl)-acetyl]-phenyl}-acetamide] belongs 64%; to `COc1ccc(F)cc1CC(=O)Nc1ccc(C(=O)CN2C(=O)NC(c3ccccc3)(c3ccccc3)C2=O)cc1` [Example 50, N-{4-[2-(2,5-Dioxo-4,4-diphenyl-imidazolidin-1-yl)acetyl]-phenyl}-2-(5-fluoro-2-methoxy-phenyl)-acetamide], 80%.
